≈ marks a conversion by molar mass, not a printed value. Where a SMILES comes first, the peptide text is derived from it. [ ]: non-standard residue; d: D form. The star is where a group is joined. ξ: configuration not given here. Octanoyl(7-Me) = CC(C)CCCCCC(=O)*; Hexanoyl(4ξ-Me) = CCC(C)CCC(=O)*; dOrn = NCCC[C@@H](N)C(=O)O; Orn = NCCC[C@H](N)C(=O)O; Dap = NC[C@H](N)C(=O)O; Alloc = C=CCOC(=O)*
Key:
E. coli (MCR-1) = type: cell-based, Escherichia coli; conditions: microbroth dilution per CLSI, MHB, 18 h at 37 °C, visual inspection, three technical replicates, E. coli 25922 carrying mcr-1
Protocol: (§1) Linear laterocidine (LL-OH, 4) and linear brevicidine (LB-OH, 5) were first synthesized by Fmoc SPPS, starting from 2-chlorotrityl (2-CT) chloride resin. The antibacterial activity of these peptides was then compared to brevicidine (1) and laterocidine (2) using minimum inhibitory concentration (MIC)/microbroth dilution assays (Table 1). The MICs of all peptides were determined against a panel of Gram-negative and Gram-positive ESKAPE pathogens. Additionally, a strain of E. coli carrying the mcr-1 gene was included in the panel. The mcr-1 gene is a transferrable plasmid that confers resistance against colistin, a last-resort antibiotic for Gram-negative infections, by reducing the overall negative charge of lipopolysaccharide (LPS) through modification of lipid A with phosphoethanolamine. The propensity for cationic antibiotics to bind to the cell membrane is therefore reduced. This gene has been observed in more than 27 bacterial species over six continents.[26] The spread of the mcr-1 gene could render colistin ineffectual; therefore, novel antibacterials are urgently required to overcome this form of resistance.
(§2) All minimum inhibitory concentrations (MICs) were determined according to Clinical and Laboratory Standards Institute (CLSI) guidelines. Blood agar plates were inoculated with glycerol stocks of E. coli ATCC 25922, K. pneumoniae ATCC 13883, A. baumannii ATCC 17961, P. aeruginosa PAO1, and S. aureus USA300. The inoculated agar plates were then incubated for 16 h at 37 °C. Individually grown colonies were subsequently used to inoculate 5 mL aliquots of TSB that were then incubated at 37 °C with shaking at 220 rpm. E. coli 25922 MCR-1 glycerol stock was used to inoculate 5 mL of TSB supplemented with kanamycin that was then incubated for 16 h at 37 °C with shaking at 220 rpm. The next day the culture was diluted 100-fold in TSB supplemented with kanamycin and incubated at 37 °C with shaking at 220 rpm. In parallel, the lipopeptide antibiotics DMSO stocks to be assessed were serially diluted with MHB in polypropylene 96-well plates (50 μL in each well). Colistin sulfate stocks were dissolved in water before being diluted with MHB. Aliquots of the inoculated TSB were incubated until an OD600 of around 0.5 was reached. The bacterial suspensions were then diluted with MHB (2 × 10^5 CFU/mL) and added to the microplates containing the test compounds (50 μL to each well). The well plates were sealed with an adhesive membrane and after 18 h of incubation at 37 °C with shaking at 600 rpm, the wells were visually inspected for bacterial growth. MIC values reported are based on three technical replicates and defined as the lowest concentration of the compound that prevented visible growth of bacteria.

E. coli ATCC 25922 = type: cell-based, Escherichia coli; conditions: for MIC (µg/mL) against E. coli (ATCC 25922): (Supplement 2); for Antibacterial activity (MIC) E. coli ATCC 25922: microbroth dilution per CLSI, MHB, 18 h at 37 °C, visual inspection, three technical replicates
Protocol: as §1, §2

P. aeruginosa PAO1 = type: cell-based, Pseudomonas aeruginosa; conditions: microbroth dilution per CLSI, MHB, 18 h at 37 °C, visual inspection, three technical replicates
Protocol: as §1, §2

A. baumannii ATCC 17961 = type: cell-based, Acinetobacter baumannii; conditions: microbroth dilution per CLSI, MHB, 18 h at 37 °C, visual inspection, three technical replicates
Protocol: as §1, §2

K. pneumoniae ATCC 13883 = type: cell-based, Klebsiella pneumoniae; conditions: microbroth dilution per CLSI, MHB, 18 h at 37 °C, visual inspection, three technical replicates
Protocol: as §1, §2

S. aureus USA300 = type: cell-based, Staphylococcus aureus; conditions: microbroth dilution per CLSI, MHB, 18 h at 37 °C, visual inspection, three technical replicates
Protocol: as §1, §2

SMILES	Antibacterial activity (MIC) E. coli (MCR-1) (E. coli (MCR-1))	MIC (µg/mL) against E. coli (ATCC 25922) (E. coli ATCC 25922)	Antibacterial activity (MIC) E. coli ATCC 25922 (E. coli ATCC 25922)	Antibacterial activity (MIC) P. aeruginosa PAO1 (P. aeruginosa PAO1)	Antibacterial activity (MIC) A. baumannii ATCC 17961 (A. baumannii ATCC 17961)	Antibacterial activity (MIC) K. pneumoniae ATCC 13883 (K. pneumoniae ATCC 13883)	Antibacterial activity (MIC) S. aureus USA300 (S. aureus USA300)
CC[C@H](C)[C@H](NC(=O)[C@H](CC(C)C)NC(=O)[C@H](Cc1c[nH]c2ccccc12)NC(=O)[C@@H](CCCN)NC(=O)CNC(=O)[C@H](CCCN)NC(=O)[C@@H](CCCN)NC(=O)[C@@H](Cc1c[nH]c2ccccc12)NC(=O)[C@@H](Cc1ccc(O)cc1)NC(=O)[C@@H](CO)NC(=O)CCCCCC(C)C)C(=O)N[C@@H](CC(N)=O)C(=O)NCC(=O)NCC(N)=O [LL(Leu9)-NH2 (42)] ({Octanoyl(7-Me)}-[dS][dY][dW][dOrn][Orn]G[dOrn]WLINGG-NH2)	8 mg/L	4 µg/mL (≈ 2.45 µM)	4 mg/L	8 mg/L	4 mg/L	8 mg/L	>32 mg/L
CCC(C)CCC(=O)N[C@H](CC(N)=O)C(=O)N[C@H](Cc1ccc(O)cc1)C(=O)N[C@H](Cc1c[nH]c2ccccc12)C(=O)N[C@H](CCCN)C(=O)N[C@@H](CCCN)C(=O)NCC(=O)N[C@H](CCCN)C(=O)N[C@@H](Cc1c[nH]c2ccccc12)C(=O)N[C@H](C(N)=O)[C@@H](C)O (some centres unmarked) [Δ10–12LB-NH2 (13)] ({Hexanoyl(4ξ-Me)}-[dN][dY][dW][dOrn][Orn]G[dOrn]WT-NH2)	>32 mg/L	–	>32 mg/L	>32 mg/L	>32 mg/L	>32 mg/L	>32 mg/L
CCC(C)CCC(=O)N[C@H](CC(N)=O)C(=O)N[C@H](Cc1ccc(O)cc1)C(=O)N[C@H](Cc1c[nH]c2ccccc12)C(=O)N[C@H](CCCN)C(=O)N[C@@H](CCCN)C(=O)NCC(=O)N[C@H](CCCN)C(=O)N[C@@H](Cc1c[nH]c2ccccc12)C(=O)N[C@@H](CCC(N)=O)C(=O)N[C@H](C(=O)NCC(N)=O)[C@@H](C)CC (some centres unmarked) [Δ12LB (Gln9)-NH2 (59)] ({Hexanoyl(4ξ-Me)}-[dN][dY][dW][dOrn][Orn]G[dOrn]WQIG-NH2)	8 mg/L	8 µg/mL (≈ 5.42 µM)	8 mg/L	2 mg/L	16 mg/L	16 mg/L	>32 mg/L
CC[C@H](C)[C@H](NC(=O)[C@@H](NC(=O)[C@H](Cc1c[nH]c2ccccc12)NC(=O)[C@@H](CCCN)NC(=O)CNC(=O)[C@H](CCCN)NC(=O)[C@@H](CCCN)NC(=O)[C@@H](Cc1c[nH]c2ccccc12)NC(=O)[C@@H](Cc1ccc(O)cc1)NC(=O)[C@@H](C)NC(=O)CCCCCC(C)C)[C@@H](C)O)C(=O)N[C@@H](CC(N)=O)C(=O)NCC(=O)NCC(N)=O [LL(D-Ala1)-NH2 (29)] ({Octanoyl(7-Me)}-[dA][dY][dW][dOrn][Orn]G[dOrn]WTINGG-NH2)	8 mg/L	–	8 mg/L	8 mg/L	32 mg/L	>32 mg/L	>32 mg/L
CCC(C)CCC(=O)N[C@H](CC(N)=O)C(=O)N[C@H](Cc1ccc(O)cc1)C(=O)N[C@H](Cc1c[nH]c2ccccc12)C(=O)N[C@H](CCCN)C(=O)N[C@@H](CCCN)C(=O)NCC(=O)N[C@H](CCCN)C(=O)N[C@@H](Cc1c[nH]c2ccccc12)C(=O)N[C@@H](CN)C(=O)N[C@H](C(=O)NCC(N)=O)[C@@H](C)CC (some centres unmarked) [Δ12LB (Dap9)-NH2 (64)] ({Hexanoyl(4ξ-Me)}-[dN][dY][dW][dOrn][Orn]G[dOrn]W[Dap]IG-NH2)	8 mg/L	>32 µg/mL	8 mg/L	4 mg/L	16 mg/L	>32 mg/L	>32 mg/L
C=CCOC(=O)NC[C@H](NC(=O)[C@H](Cc1c[nH]c2ccccc12)NC(=O)[C@@H](CCCN)NC(=O)CNC(=O)[C@H](CCCN)NC(=O)[C@@H](CCCN)NC(=O)[C@@H](Cc1c[nH]c2ccccc12)NC(=O)[C@@H](Cc1ccc(O)cc1)NC(=O)[C@@H](CO)NC(=O)CCCCCC(C)C)C(=O)N[C@H](C(=O)N[C@@H](CC(N)=O)C(=O)NCC(=O)NCC(N)=O)[C@@H](C)CC [LL(Dap[Alloc]9)-NH2 (50)] ({Octanoyl(7-Me)}-[dS][dY][dW][dOrn][Orn]G[dOrn]W[Dap](Alloc)INGG-NH2)	4 mg/L	2 µg/mL (≈ 1.18 µM)	2 mg/L	8 mg/L	4 mg/L	4 mg/L	>32 mg/L
CC[C@H](C)[C@H](NC(=O)[C@@H](NC(=O)[C@H](C)NC(=O)[C@@H](CCCN)NC(=O)CNC(=O)[C@H](CCCN)NC(=O)[C@@H](CCCN)NC(=O)[C@@H](Cc1c[nH]c2ccccc12)NC(=O)[C@@H](Cc1ccc(O)cc1)NC(=O)[C@@H](CO)NC(=O)CCCCCC(C)C)[C@@H](C)O)C(=O)N[C@@H](CC(N)=O)C(=O)NCC(=O)NCC(N)=O [LL(Ala8)-NH2 (36)] ({Octanoyl(7-Me)}-[dS][dY][dW][dOrn][Orn]G[dOrn]ATINGG-NH2)	>32 mg/L	–	>32 mg/L	32 mg/L	>32 mg/L	>32 mg/L	>32 mg/L
CC[C@H](C)[C@H](NC(=O)[C@H](Cc1ccccc1)NC(=O)[C@H](Cc1c[nH]c2ccccc12)NC(=O)[C@@H](CCCN)NC(=O)CNC(=O)[C@H](CCCN)NC(=O)[C@@H](CCCN)NC(=O)[C@@H](Cc1c[nH]c2ccccc12)NC(=O)[C@@H](Cc1ccc(O)cc1)NC(=O)[C@@H](CO)NC(=O)CCCCCC(C)C)C(=O)N[C@@H](CC(N)=O)C(=O)NCC(=O)NCC(N)=O [LL(Phe9)-NH2 (43)] ({Octanoyl(7-Me)}-[dS][dY][dW][dOrn][Orn]G[dOrn]WFINGG-NH2)	4 mg/L	4 µg/mL (≈ 2.4 µM)	4 mg/L	8 mg/L	4 mg/L	8 mg/L	>32 mg/L
CC[C@H](C)[C@H](NC(=O)[C@H](CN)NC(=O)[C@H](Cc1c[nH]c2ccccc12)NC(=O)[C@@H](CCCN)NC(=O)CNC(=O)[C@H](CCCN)NC(=O)[C@@H](CCCN)NC(=O)[C@@H](Cc1c[nH]c2ccccc12)NC(=O)[C@@H](Cc1ccc(O)cc1)NC(=O)[C@@H](CO)NC(=O)CCCCCC(C)C)C(=O)N[C@@H](CC(N)=O)C(=O)NCC(=O)NCC(N)=O [LL(Dap9)-NH2 (52)] ({Octanoyl(7-Me)}-[dS][dY][dW][dOrn][Orn]G[dOrn]W[Dap]INGG-NH2)	8 mg/L	8 µg/mL (≈ 4.98 µM)	8 mg/L	–	16 mg/L	32 mg/L	>32 mg/L

From article PMC10150354, “Linearization of the Brevicidine and Laterocidine Lipopeptides Yields Analogues That Retain Full Antibacterial Activity” (Journal of Medicinal Chemistry, 2023)
